# Laboratory results from ChEMBL document CHEMBL5500349, “Discovery of ganoderic acid A (GAA) PROTACs as MDM2 protein degraders for the treatment of breast cancer” (Eur J Med Chem, 2024).
# The source made the active and inactive calls. The rule behind the calls is not given here.
# Assays:
# [1] = Cytotoxicity against mouse HT-22 cells assessed as cell viability at 100 uM incubated for 48 to 72 hrs by MTT assay; format: toxicity, cell-based; settings: time 48-72 hrs, read-out: Activity
# [2] = biological target: T1, von Hippel-Lindau disease tumor suppressor/E3 ubiquitin-protein ligase Mdm2 (Homo sapiens, UniProt Q00987+P40337); test: Protac activity at VHL/MDM2 in human MCF7 cells assessed as reduction in MDM2 protein level after 48 hrs by Western blotting analysis; format: cell-based
# [3] = test system: MDA-MB-231; test: Antiproliferative activity against human MDA-MB-231 cells assessed as cell viability at 100 uM incubated for 48 to 72 hrs by MTT assay; format: functional; settings: time 48-72 hrs, read-out: Activity
# [4] = biological target: E3 ubiquitin-protein ligase Mdm2 (Homo sapiens, UniProt Q00987); test: Binding affinity to MDM2 (unknown origin) by SPR assay
# [5] = test system: HepG2; test: Antiproliferative activity against human HepG2 cells assessed as cell viability at 100 uM incubated for 48 to 72 hrs by MTT assay; format: functional; settings: time 48-72 hrs, read-out: Activity
# [6] = test system: MCF7; test: Antiproliferative activity against human MCF7 cells assessed as cell viability at 100 uM incubated for 48 to 72 hrs by MTT assay; format: functional; settings: time 48-72 hrs, read-out: Activity
# [7] = biological target: T1, von Hippel-Lindau disease tumor suppressor/E3 ubiquitin-protein ligase Mdm2; test: Protac activity at VHL/MDM2 in human MCF7 cells assessed as upregulation of p53 level at 75 to 105 uM after 48 hrs by Western blotting analysis; format: cell-based; settings: dose 75-105 µM
# Target sequence in this assay (P40337 whole entry, looked up): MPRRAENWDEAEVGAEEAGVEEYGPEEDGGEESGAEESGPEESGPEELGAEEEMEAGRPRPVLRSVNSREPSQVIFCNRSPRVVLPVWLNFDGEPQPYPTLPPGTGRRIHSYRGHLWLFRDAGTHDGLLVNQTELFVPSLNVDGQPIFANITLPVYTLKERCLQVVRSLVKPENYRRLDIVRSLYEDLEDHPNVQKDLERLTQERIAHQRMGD
# Target sequence in this assay (Q00987 whole entry, looked up): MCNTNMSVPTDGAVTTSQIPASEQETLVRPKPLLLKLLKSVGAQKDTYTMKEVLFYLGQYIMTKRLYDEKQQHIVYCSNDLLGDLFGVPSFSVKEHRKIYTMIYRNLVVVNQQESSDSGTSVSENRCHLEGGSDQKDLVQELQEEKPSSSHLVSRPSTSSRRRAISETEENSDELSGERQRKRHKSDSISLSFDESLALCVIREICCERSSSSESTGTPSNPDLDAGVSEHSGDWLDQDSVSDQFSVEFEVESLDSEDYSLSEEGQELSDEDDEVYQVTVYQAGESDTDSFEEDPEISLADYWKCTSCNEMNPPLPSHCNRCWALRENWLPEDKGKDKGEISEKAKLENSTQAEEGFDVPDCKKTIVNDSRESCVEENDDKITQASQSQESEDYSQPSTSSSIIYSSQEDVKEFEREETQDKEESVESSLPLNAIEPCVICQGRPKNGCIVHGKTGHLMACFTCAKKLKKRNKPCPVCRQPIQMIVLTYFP
# [8] = biological target: T1, von Hippel-Lindau disease tumor suppressor/E3 ubiquitin-protein ligase Mdm2; test: Protac activity at VHL/MDM2 in human MCF7 cells assessed as upregulation of p21 level at 75 to 105 uM after 48 hrs by Western blotting analysis; format: cell-based; settings: dose 75-105 µM
# Target sequence in this assay (P40337 whole entry, looked up): as the sequence (P40337 whole entry, looked up) above
# Target sequence in this assay (Q00987 whole entry, looked up): as the sequence (Q00987 whole entry, looked up) above
# [9] = test system: SJSA-1; test: Antiproliferative activity against human SJSA-1 cells assessed as cell viability at 100 uM incubated for 48 to 72 hrs by MTT assay; format: functional; settings: time 48-72 hrs, read-out: Activity
# [10] = biological target: T1, von Hippel-Lindau disease tumor suppressor/E3 ubiquitin-protein ligase Mdm2; test: Protac activity at VHL/MDM2 in human MCF7 cells assessed as reduction in MDM2 protein level at 100 uM pretreated with MG-132 for 2 hrs followed by compound addition and measured after 48 hrs by Western blotting analysis; format: cell-based
# Target sequence in this assay (P40337 whole entry, looked up): as the sequence (P40337 whole entry, looked up) above
# Target sequence in this assay (Q00987 whole entry, looked up): as the sequence (Q00987 whole entry, looked up) above
# Chain of E3 ubiquitin-protein ligase Mdm2 (Q00987 whole entry): as the sequence (Q00987 whole entry, looked up) above
structure (smiles),measurement,setting,value
Cc1ncsc1-c1ccc([C@H](C)NC(=O)[C@@H]2C[C@@H](O)CN2C(=O)[C@@H](NC(=O)CCCCc2cn(CCOCCOCCOCCNC(=O)[C@H](C)CC(=O)C[C@@H](C)[C@H]3C[C@H](O)[C@@]4(C)C5=C(C(=O)C[C@]34C)[C@@]3(C)CCC(=O)C(C)(C)[C@@H]3C[C@@H]5O)nn2)C(C)(C)C)cc1,viability at 100 µM,[1],91.8%
same,Activity,[2],Dose-Dependent Effect
same,DC50,[2],100 µM
same,viability at 100 µM,[3],35.4%
same,Kd,[4],32.4 µM
same,viability at 100 µM,[5],90.2%
same,viability at 100 µM,[6],24.9%
same,Activity,[7],Active
same,Activity,[8],Active
same,viability at 100 µM,[9],69.6%
same,Activity,[10],inactive
